Non-standard residues stand in square brackets, D forms with d. Residues, ends and D or L forms follow the SMILES beside them. No end group written: not given here. Aib = CC(C)(N)C(=O)O
What was measured:
[1] = Lipid binding by fluorescence spectroscopy; conditions: Ri 0 (buffer, no lipids), 2 μM
Experimental: The lipid binding properties of the peptides synthesized in Section 6, supra, were tested by fluorescence measurements with labeled peptides, in the present case Tryptophane (Trp or W) or Naphtylalanine (Nal). The fluorescence spectra were recorded on a Fluoromax from Spex (Jobin-Yvon) equipped with a Xenon lamp of 150 W, two monochromators (excitation and emission), a photomultiplier R-928 for detection sensitive in the red up to 850 nm and a thermoelectric magnetic stirred cell holder. Quartz Suprasil cuvettes were used for measurements in the micromolar concentration range. A device of variable slits (from 0.4 to 5 nm) allows modulation of the incident and emitted intensities according to the concentration of peptide used. The reported values are in general the average of between 2 to 4 spectra. The peptide concentration is determined by absorption spectrometry on a Philips PU 8800 using the absorption band of the Trp (ε280 nm=5,550 M^−1 cm^−1 in Tris buffer) or the Nal (ε224 nm =92,770 M^−1 cm^−1 in methanol)
Fluorescence spectra of the peptides were recorded between 290 nm and 450 nm in Tris-HCl buffer (20 mM, pH=7.5), in the presence and absence of lipidic vesicles. The small unilamellar vesicles were formed after rehydration in buffer of the lyophilized phospholipids, dispersion and tip sonification under a N2 stream. The lipids used were either Egg PC/Chol. (20:1) or POPC/Chol. (20:1). The spectra were recorded at a peptide concentration of 2 μM and at a temperature of 37° C. The fluorescence reference standard in the case of Trp was N-acetyltryptophanylamide (NATA).
Lipid binding studies were done through progressive lipidic vesicle addition to the peptide in solution at 2 μM (slits: 5 nm in excitation and 1.5 nm in emission). Dilution effects were taken into account for the fluorescence intensity determination. The lipid concentrations were varied from 10 to 600 μM and the molar ratio of lipid to peptide (Ri) was varied from 5 to 300. The wavelength of excitation was set at 280 nm for both Trp and Nal.
The data were directly recorded and treated by an IBM-PC linked to the spectrofluorimeter through the DM3000F software from Spex. The spectra were corrected by substraction of the solvent contribution and by application of a coefficient given by the constructor taking into account the variation of the photomultiplier response versus the wavelength.
The fluorescence spectra of the peptides were characterized by the wavelength at their maximum of fluorescence emission and by their quantum yield compared to NATA in the case of peptides labeled with a tryptophane. The process of binding to lipids was analyzed by calculating the shift of the wavelength at the maximum of fluorescence emission, (λmax), and the variation of the relative fluorescence intensity of emission versus the lipid concentration. The relative fluorescence intensity is defined as the following ratio: (I-I0)λmax/I0λmax. I and I0 are both measured at the (λmax) corresponding to the initial free state of the peptide, i.e., without lipids. I is the intensity at a defined lipid to peptide ratio and I0 is the same parameter measured in absence of lipids. The absence of these variations is relevant of the absence of interactions of the peptides with the lipids.

HDL cholesterol = HDL cholesterol in rabbits after injection of phospholipid/peptide complex; type: in vivo, rabbit; conditions: 10 mg/kg i.v. as phospholipid complex
Experimental: Small discoidal particles consisting of phospholipid (DPPC) and peptide 146 (SEQ ID NO:146) were prepared following the cholate dialysis method. The phospholipid was dissolved in chloroform and dried under a stream of nitrogen. The peptide was dissolved in buffer (saline) at a concentration of 1-2 mg/ml. The lipid film was redissolved in buffer containing cholate (43° C.) and the peptide solution was added at a 3-1 phospholipid/peptide ratio. The mixture was incubated overnight at 43° C. and then dialyzed at 43° C. (24 hr.), room temperature (24 hr.) and 4° C. (24 hr.), with three changes of buffer (large volumes) at temperature point. The complexes were filter sterilized (0.22μ) for injection and storage at 4° C.
Male New Zealand White rabbits (2.5-3 kg) were injected intravenously with a dose of phospholipid/peptide complex (8 mg/kg bodyweight peptide 146 (SEQ ID NO:146) or 10 mg/kg bodyweight ApoA-I, expressed as peptide or protein content) in a single bolus injection not exceeding 10-15 ml. The animals were slightly sedated before the manipulations. Blood samples (collected on EDTA) were taken before and 5, 15, 30, 60, 240 and 1440 minutes after injection. The hematocrit (Hct) was determined for each sample. Samples were aliquoted and stored at −20° C. before analysis.
Plasma Lipids. The total plasma cholesterol, plasma triglycerides and plasma phospholipids were determined enzymatically using commercially available assays according to the manufacturer's protocols (Boehringer Mannheim, Mannheim, Germany and Biomerieux, 69280, Marcy-l'étoile, France).
Lipoprotein Profiles. The plasma lipoprotein profiles of the fractions obtained after the separation of the plasma into its lipoprotein fractions were determined by spinning in a sucrose density gradient. The fractions were collected and in each individual fraction the phospholipid and cholesterol content was measured enzymatically.

[2] = target: T1, LCAT (purified from human plasma) (Homo sapiens, UniProt P04180); assay: LCAT activation assay; type: biochemical; conditions: LCAT activation as compared with native human ApoA-I (= 100%), equivalent masses
T1 construct: from tissue; host or cells: human plasma
T1 sequence (P04180 25-440): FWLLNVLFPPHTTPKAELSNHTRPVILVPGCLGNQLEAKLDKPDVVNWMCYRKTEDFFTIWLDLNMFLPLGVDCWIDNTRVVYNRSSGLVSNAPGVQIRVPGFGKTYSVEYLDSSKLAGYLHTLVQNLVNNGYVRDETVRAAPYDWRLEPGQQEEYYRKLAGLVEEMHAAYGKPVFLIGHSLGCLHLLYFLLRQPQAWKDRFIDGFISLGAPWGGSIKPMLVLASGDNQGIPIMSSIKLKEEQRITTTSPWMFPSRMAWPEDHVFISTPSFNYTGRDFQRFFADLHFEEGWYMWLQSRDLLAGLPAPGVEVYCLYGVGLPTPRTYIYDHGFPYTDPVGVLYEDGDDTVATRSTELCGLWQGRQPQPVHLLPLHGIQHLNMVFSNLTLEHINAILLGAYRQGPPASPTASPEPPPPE
Procedure, shortened: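 Substrate SUVs of EPC or POPC with 14C-cholesterol (20:1 molar ratio), in 10 mM Tris, 0.14 M NaCl, 1 mM EDTA, pH 7.4, were preincubated with peptide or equal mass of plasma ApoA-I. Reaction started with human plasma LCAT; activation was measured as cholesterol-to-ester conversion relative to ApoA-I (100%).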

[3] = Circular dichroism helicity determination; type: physicochemical; conditions: percent helicity; for He (%) TFE: 5 μM peptide, 90% vol TFE; for He (%) TFE / He (%) SUVs: 37° C.; for He (%) free: unbound peptide 5 μM in 5 mM phosphate buffer, pH 7.4, 37° C.; for He (%) SUVs: peptide-SUV complexes (20:1 EPC:Chol., Ri=30 and Ri=50); for He (%) mics: peptide-micelle complexes, Ri=100, 37° C.
Procedure, shortened: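 Far-UV CD (190–260 nm) at 37° C on 5 μM peptide in 5 mM phosphate pH 7.4, free, with EPC:Chol 20:1 SUVs (Ri 30 or 50), lysophosphatidylcholine micelles (Ri 100) or 90% TFE. Spectra converted to molar ellipticity per residue; helicity from 222 nm ellipticity or CONTIN fitting to reference spectra, ±5%.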

λmax (nm) [1]	ACTIVITY (%) LCAT [2]	He (%) TFE [3]	He (%) free [3]	He (%) SUVs [3]	He (%) mics [3]	Compound	Increase in HDL Cholesterol (%) (HDL cholesterol; 5 min.)	Increase in HDL Cholesterol (%) (HDL cholesterol; 15 min.)	Increase in HDL Cholesterol (%) (HDL cholesterol; 60 min.)	Increase in HDL Cholesterol (%) (HDL cholesterol; 240 min.)
–	25%	69%	53%	85%	73%	CC(C)C[C@H](NC(=O)[C@H](C)NC(=O)[C@H](CCC(=O)O)NC(=O)[C@H](CC(C)C)NC(=O)C(C)(C)NC(=O)[C@H](CCC(=O)O)NC(=O)[C@H](CC(N)=O)NC(=O)[C@H](CC(C)C)NC(=O)[C@H](CC(C)C)NC(=O)[C@H](CCC(=O)O)NC(=O)[C@H](CCCNC(=N)N)NC(=O)[C@H](Cc1c[nH]c2ccccc12)NC(=O)[C@H](CC(C)C)NC(=O)[C@H](CC(=O)O)NC(=O)[C@H](CC(C)C)NC(=O)[C@@H](NC(=O)[C@@H]1CCCN1)C(C)C)C(=O)N[C@@H](CCCCN)C(=O)N[C@@H](CCC(N)=O)C(=O)N[C@@H](CCCCN)C(=O)N[C@@H](CC(C)C)C(=O)N[C@@H](CCCCN)C(=O)O [compound 41, PVLDLWRELLNEXLEALKQKLK] (H-PVLDLWRELLNE[Aib]LEALKQKLK-OH)	–	–	–	–
–	8%	51%	21%	23%	56%	PVLDAFRELLEALAQLKK [compound 223]	–	–	–	–
–	24%	61%	37%	51%	66%	PVLELFENLLERLLDAWQKKLK [compound 164]	–	–	–	–

The next lines start with the compound.

Compound	λmax (nm) [1]	ACTIVITY (%) LCAT [2]	He (%) TFE [3]	He (%) free [3]	He (%) SUVs [3]	He (%) mics [3]	Increase in HDL Cholesterol (%) (HDL cholesterol; 5 min.)	Increase in HDL Cholesterol (%) (HDL cholesterol; 15 min.)	Increase in HDL Cholesterol (%) (HDL cholesterol; 60 min.)	Increase in HDL Cholesterol (%) (HDL cholesterol; 240 min.)
CC(=O)N[C@@H](Cc1c[nH]c2ccccc12)C(N)=O [NATA, N-acetyltryptophanylamide, reference compound]	350 nm	–	–	–	–	–	–	–	–	–
Native ApoA-I: ApoA-I (isolated from human plasma), used as positive control; injected as phospholipid complex in rabbits	–	–	–	–	–	–	19.3%	16%	15.8%	−24.1%
